This is an account of results in patent US20060135522A1, “Tricyclic delta-opioid modulators” (priority 2004, published 2006).

Molecules are shown by their SMILES. Like-named read-outs stand apart in the source and are kept apart here. A value given as a limit tells only on which side of the number the result lay.

One assay deals with T1, delta opioid receptor (Rattus norvegicus, UniProt P33533).
T1 construct: from tissue; host or cells: forebrain of male Wistar rats (particulate membrane preparation)
T1 sequence (P33533 whole entry): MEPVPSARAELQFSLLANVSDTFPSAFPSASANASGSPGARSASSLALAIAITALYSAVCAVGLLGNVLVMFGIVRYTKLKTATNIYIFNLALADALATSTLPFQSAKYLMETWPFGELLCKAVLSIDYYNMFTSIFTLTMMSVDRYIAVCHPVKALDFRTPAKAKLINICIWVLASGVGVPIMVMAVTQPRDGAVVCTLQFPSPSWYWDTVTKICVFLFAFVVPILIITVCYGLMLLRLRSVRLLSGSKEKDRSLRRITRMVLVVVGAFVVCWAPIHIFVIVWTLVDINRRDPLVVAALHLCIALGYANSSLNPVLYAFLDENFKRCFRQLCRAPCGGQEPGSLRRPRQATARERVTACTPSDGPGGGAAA
The assay can be described thus: Rat Brain Delta Opioid Receptor Binding Assay. How it is done:
Procedure: Male, Wistar rats (150-250 g, VAF, Charles River, Kingston, N.Y.) were killed by CO2, and their brains were removed and placed immediately in ice cold Tris HCl buffer (50 mM, pH 7.4). The forebrains were separated from the remainder of the brain by a coronal transection, beginning dorsally at the colliculi and passing ventrally through the midbrain-pontine junction. After dissection, the forebrains were homogenized in Tris buffer in a Teflon®-glass homogenizer. The homogenate was diluted to a concentration of 1 g of forebrain tissue per 80 mL Tris and centrifuged at 39,000×g for 10 min. The pellet was resuspended in the same volume of Tris buffer containing 5 mM MgCl2 with several brief pulses from a Polytron homogenizer. This particulate preparation was used for the delta opioid binding assays. Following incubation with the delta selective peptide ligand ˜4 nM [^3H]DPDPE or 0.15 nM [^3H]naltrindole at 25° C. for 2.5 h in a 96-well plate with total volume of […], the plate contents were filtered through Wallac filtermat B sheets on a Tomtec 96-well harvester. The filters were rinsed three times with 2 mL of 10 mM HEPES (pH 7.4), and dried in a 650 W microwave oven for 1.75 min twice. To each sample area 2×50 μL of Betaplate Scint scintillation fluid (LKB) was added and the radioactivity was quantified on a LKB (Wallac) 1205 BetaPlate liquid scintillation counter.
(§1) Analysis: The data from the scintillation counter was used to calculate either the % inhibition compared to control binding (when only a single concentration of test compound was evaluated) or a Ki value (when a range of concentrations was tested). Percent inhibition was calculated as: [(total dpm-test compound dpm)/(total dpm-nonspecific dpm)]*100. Kd and Ki values were calculated using GraphPad PRISM data analysis program.

In a further assay the target is T2, mu opioid receptor (Rattus norvegicus, UniProt P33535).
T2 construct: from tissue; host or cells: forebrain of male Wistar rats (particulate membrane preparation)
T2 sequence (P33535 whole entry): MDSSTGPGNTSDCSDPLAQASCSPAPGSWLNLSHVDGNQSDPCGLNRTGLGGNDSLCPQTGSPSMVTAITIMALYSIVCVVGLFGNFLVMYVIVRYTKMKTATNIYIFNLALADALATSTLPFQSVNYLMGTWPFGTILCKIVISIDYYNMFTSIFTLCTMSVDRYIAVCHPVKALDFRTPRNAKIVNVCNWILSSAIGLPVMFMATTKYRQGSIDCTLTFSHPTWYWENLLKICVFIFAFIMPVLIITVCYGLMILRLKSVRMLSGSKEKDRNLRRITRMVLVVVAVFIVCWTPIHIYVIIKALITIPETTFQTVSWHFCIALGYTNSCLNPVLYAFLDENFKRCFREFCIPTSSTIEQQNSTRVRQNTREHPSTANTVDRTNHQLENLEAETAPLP
The assay can be described thus: Rat Brain Mu Opioid Receptor Binding Assay. How it is done: Procedure: Male, Wistar rats (150-250 g, VAF, Charles River, Kingston, N.Y.) were killed by CO2, and their brains were removed and placed immediately in ice cold Tris HCl buffer (50 mM, pH 7.4). The forebrains were separated from the remainder of the brain by a coronal transection, beginning dorsally at the colliculi and passing ventrally through the midbrain-pontine junction. After dissection, the forebrains were homogenized in Tris buffer in a Teflon®-glass homogenizer. The homogenate was diluted to a concentration of 1 g of forebrain tissue per 80 mL Tris and centrifuged at 39,000×g for 10 min. The pellet was resuspended in the same volume of Tris buffer containing 5 mM MgCl2 with several brief pulses from a Polytron homogenizer. This particulate preparation was used for the mu opioid binding assays.
as §1

Assay [1] deals with T3, delta opioid receptor (NG108-15 cell membranes) (Mus musculus, UniProt P32300).
T3 construct: NG108-15 cell membranes were purchased from Applied Cell Sciences (Rockville, Md.); host or cells: NG108-15 cell membranes (purchased)
T3 sequence (P32300 whole entry): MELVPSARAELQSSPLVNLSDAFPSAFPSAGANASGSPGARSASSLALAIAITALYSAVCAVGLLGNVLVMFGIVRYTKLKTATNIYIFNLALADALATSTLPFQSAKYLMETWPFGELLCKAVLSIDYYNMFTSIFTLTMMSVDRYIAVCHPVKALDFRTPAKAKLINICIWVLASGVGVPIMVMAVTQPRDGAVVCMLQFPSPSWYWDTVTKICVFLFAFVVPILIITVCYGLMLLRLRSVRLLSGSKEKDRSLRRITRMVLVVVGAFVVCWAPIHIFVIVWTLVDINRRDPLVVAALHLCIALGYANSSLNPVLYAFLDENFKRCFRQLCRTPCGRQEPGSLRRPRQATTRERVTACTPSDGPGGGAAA
Kind of assay: [35S]GTPγS Binding Assay in NG108-15 Cell Membranes (Delta Opioid). Format: biochemical. On the procedure:
Methods: NG108-15 cell membranes were purchased from Applied Cell Sciences (Rockville, Md.). 8 mg/mL of membrane protein was suspended in 10 mM TRIS-HCl pH 7.2, 2 mM EDTA, 10% sucrose. Membranes were maintained at 4-8° C. A 1 mL volume of membranes was added into 10 mL cold binding assay buffer. The assay buffer contained 50 mM Tris, pH 7.6, 5 mM MgCl2, 100 mM NaCl, 1 mM DTT and 1 mM EGTA. The membrane suspension was homogenized twice with a Polytron, and centrifuged at 3000 rpm for 10 min. The supernatant was then centrifuged at 18,000 rpm for 20 min. Ten mL assay buffer was added into the pellet containing tube. The pellet and buffer were mixed with a Polytron.
Incubation procedure: The pellet membranes (75 μg/mL) were preincubated with SPA (10 mg/mL) at 25° C. for 45 min in the assay buffer. […] GTPγS in the same Tris buffer containing 100 μM GDP in a total volume of 200 μL. Increasing concentrations of receptor agonists were used to stimulate [^35S]-GTP[…]S binding. The basal binding was tested in the absence of agonists and non-specific binding was tested in the presence of 10 μM unlabeled GTPγS. The data were analyzed on a Packard Top Count.
% of Basal=(stimulated−non specific)*100/(basal−non specific).
EC50 value values were calculated using GraphPad Prism.

Where [2] appears, read: rat forebrain membranes, [3H]DAMGO, 25° C., 2.5 h, read-out: mu (Ki).
Setting [3] is: NG108-15 cell membranes, stimulation of [35S]GTPγS binding, read-out: delta GTPγS EC50.
[4] abbreviates: rat forebrain membranes, [3H]DPDPE or [3H]naltrindole, 25° C., 2.5 h, read-out: delta (Ki).

For the compound `CCN(CC)C(=O)c1cccc(-c2ccc3c(c2)Oc2c(O)cccc2C3C2CCNCC2)c1` (stereo not drawn) [3j, N,N-Diethyl-3-(5-hydroxy-9-piperidin-4-yl-9H-xanthen-3-yl)-benzamide], the Ki at delta opioid receptor stood at 0.0378 µM; on mu opioid receptor (setting [2]) it was 0.535 µM. In assay [1] (setting [3]), the EC50 is 0.342 µM.

Consider `CC(=O)Nc1ccccc1-c1ccc2c(c1)Oc1ccccc1C2C1CCN(CCc2ccccc2)CC1` (stereo not drawn) [5g, N-{2-[9-(1-Phenethyl-piperidin-4-yl)-9H-xanthen-3-yl]-phenyl}-acetamide], for which the Ki at delta opioid receptor (setting [4]) turned out to be 4.57 µM; at mu opioid receptor (setting [2]), 0.995 µM.

Take `O=C(c1ccc2c(c1)Oc1ccccc1C2C1CCN(Cc2ccoc2)CC1)N1CC[C@H](O)C1` (stereo partly drawn) [5n, [9-(1-Furan-3-ylmethyl-piperidin-4-yl)-9H-xanthen-3-yl]-(3-(S)-hydroxy-pyrrolidin-1-yl)-methanone]: the results for the Ki on delta opioid receptor (setting [4]) and at mu opioid receptor (setting [2]) were 0.177 µM and above 10 µM, respectively.

For `CCN(CC)C(=O)c1ccc2c(c1)Oc1c(OC)cccc1C2C1CCNCC1` (stereo not drawn) [6c, 5-Methoxy-9-piperidin-4-yl-9H-xanthene-3-carboxylic acid diethylamide], the Ki on delta opioid receptor (setting [4]) was 0.277 µM; at mu opioid receptor (setting [2]), above 10 µM.

Turning to `C=CCN1CCC(C2c3ccccc3Oc3cc(-c4ccccc4NC(C)=O)ccc32)CC1` (stereo not drawn) [6g, N-{2-[9-(1-Allyl-piperidin-4-yl)-9H-xanthen-3-yl]-phenyl}-acetamide], the Ki on delta opioid receptor (setting [4]) was 1.09 µM; on mu opioid receptor (setting [2]), 9.63 µM.

In the case of `CCN(CC)C(=O)c1ccc2c(c1)Oc1c(Cl)cccc1C2C1CCNCC1` (stereo not drawn) [6k, 5-Chloro-9-piperidin-4-yl-9H-xanthene-3-carboxylic acid diethylamide], the Ki was determined as 0.274 µM at delta opioid receptor (setting [4]) and 5.7 µM on mu opioid receptor (setting [2]).

With `O=C(c1ccc2c(c1)Oc1ccccc1C2C1CCN(CCc2ccccc2)CC1)N1CC[C@H](O)C1` (stereo partly drawn) [6n, (3-(S)-Hydroxy-pyrrolidin-1-yl)-[9-(1-phenethyl-piperidin-4-yl)-9H-xanthen-3-yl]-methanone], the Ki stood at 7.05 µM at delta opioid receptor (setting [4]) and 3.4 µM on mu opioid receptor (setting [2]).

For `COc1cccc2c1Oc1cc(-c3cccnc3)ccc1C2C1CCNCC1` (stereo not drawn) [7b, 3-(5-Methoxy-9-piperidin-4-yl-9H-xanthen-3-yl)-pyridine], the Ki at delta opioid receptor (setting [4]) was 0.318 µM; at mu opioid receptor (setting [2]), above 10 µM.

Regarding `CCN(CC)C(=O)c1ccc2c(c1)Oc1c(O)cccc1C2C1CCNCC1` (stereo not drawn) [7c, 5-Hydroxy-9-piperidin-4-yl-9H-xanthene-3-carboxylic acid diethylamide], the values for the Ki on delta opioid receptor and on mu opioid receptor were 0.002 µM and 4.23 µM, respectively. In assay [1], this compound had an EC50 of 0.0187 µM. In addition, the “delta GTPγS Rel Eff.” value in assay [1] (NG108-15 cell membranes, relative efficacy) is reported as 0.51.

For the compound `c1ccc(CN2CCC(C3c4ccccc4Oc4cc(-c5cccnc5)ccc43)CC2)cc1` (stereo not drawn) [7f, 3-[9-(1-Benzyl-piperidin-4-yl)-9H-xanthen-3-yl]-pyridine], the Ki at delta opioid receptor worked out at 0.783 µM; at mu opioid receptor it was 3.12 µM.

Turning to `CCN(CC)C(=O)c1ccc2c(c1)Oc1ccccc1C2C1CCNCC1` (stereo not drawn) [8a, 9-Piperidin-4-yl-9H-xanthene-3-carboxylic acid diethylamide], the Ki came out at 0.015 µM on delta opioid receptor and 8.79 µM at mu opioid receptor (setting [2]). In assay [1] (setting [3]), the EC50 was 0.266 µM.

`COc1cccc2c1Oc1cc(-c3ccncc3)ccc1C2C1CCNCC1` (stereo not drawn) [8b, 4-(5-Methoxy-9-piperidin-4-yl-9H-xanthen-3-yl)-pyridine]: the values for the Ki on delta opioid receptor (setting [4]) and on mu opioid receptor (setting [2]) were 0.619 µM and above 10 µM, respectively.

In the case of `c1ccc(CCN2CCC(C3c4ccccc4Oc4cc(-c5cccnc5)ccc43)CC2)cc1` (stereo not drawn) [8f, 3-[9-(1-Phenethyl-piperidin-4-yl)-9H-xanthen-3-yl]-pyridine], the Ki on delta opioid receptor (setting [4]) was 2.99 µM; on mu opioid receptor (setting [2]) it was 0.907 µM.

On to `CCN(CC)C(=O)c1ccc2c(c1)Oc1ccccc1C2C1CCN(Cc2ccoc2)CC1` (stereo not drawn) [9a, 9-(1-Furan-3-ylmethyl-piperidin-4-yl)-9H-xanthene-3-carboxylic acid diethylamide], for which the figures for the Ki on delta opioid receptor and at mu opioid receptor were 0.141 µM and 51 µM, respectively.

With `COc1cccc2c1Oc1cc(-c3ccccc3NC(C)=O)ccc1C2C1CCNCC1` (stereo not drawn) [9b, N-[2-(5-Methoxy-9-piperidin-4-yl-9H-xanthen-3-yl)-phenyl]-acetamide], the Ki on delta opioid receptor (setting [4]) came out at 0.761 µM; at mu opioid receptor (setting [2]) it was 4.45 µM.

For `CCN(CC)C(=O)c1ccc2c(c1)Oc1ccccc1C2C1CCN(Cc2ccccc2)CC1` (stereo not drawn) [10a, 9-(1-Benzyl-piperidin-4-yl)-9H-xanthene-3-carboxylic acid diethylamide], the Ki on delta opioid receptor is 0.075 µM; at mu opioid receptor it was 5.37 µM.

For the compound `CCN(CC)C(=O)c1ccc2c(c1)Oc1ccccc1C2C1CCN(Cc2ccccn2)CC1` (stereo not drawn) [11a, 9-(1-Pyridin-2-ylmethyl-piperidin-4-yl)-9H-xanthene-3-carboxylic acid diethylamide], the results for the Ki at delta opioid receptor and on mu opioid receptor were 2.7 µM and 15.1 µM, respectively.

Regarding `CCN(CC)C(=O)c1ccc2c(c1)Oc1ccccc1C2C1CCN(CCc2ccccc2)CC1` (stereo not drawn) [12a, 9-(1-Phenethyl-piperidin-4-yl)-9H-xanthene-3-carboxylic acid diethylamide], the Ki on delta opioid receptor came out at 3.83 µM; on mu opioid receptor it was 0.976 µM.

As to `CCN(CC)C(=O)c1ccc2c(c1)Oc1ccccc1C2C1CCN(Cc2ncc[nH]2)CC1` (stereo not drawn) [13a, 9-[1-(1H-Imidazol-2-ylmethyl)-piperidin-4-yl]-9H-xanthene-3-carboxylic acid diethylamide], the Ki at delta opioid receptor is 0.106 µM; at mu opioid receptor, 1.7 µM.

As to `CCN(CC)C(=O)c1ccc2c(c1)Oc1ccccc1C2C1CCN(CC2CC2)CC1` (stereo not drawn) [14a, 9-(1-Cyclopropylmethyl-piperidin-4-yl)-9H-xanthene-3-carboxylic acid diethylamide], the Ki at delta opioid receptor (setting [4]) was 1.08 µM; on mu opioid receptor (setting [2]) it was 6.99 µM.

Regarding `CCN(CC)C(=O)c1ccc2c(c1)Oc1ccccc1C2C1CCN(Cc2cccs2)CC1` (stereo not drawn) [15a, 9-(1-Thiophen-2-ylmethyl-piperidin-4-yl)-9H-xanthene-3-carboxylic acid diethylamide], the Ki on delta opioid receptor was determined as 0.45 µM; at mu opioid receptor it was 4.12 µM.

For the compound `CCN(CC)C(=O)c1ccc2c(c1)Oc1ccccc1C2C1CCN(C)CC1` (stereo not drawn) [16a, 9-(1-Methyl-piperidin-4-yl)-9H-xanthene-3-carboxylic acid diethylamide], the Ki is 1.14 µM at delta opioid receptor and 35.2 µM at mu opioid receptor.
